Tested on: male C57BL/6 mice
Assay: Measurement of amount of activity of mice (sleep inducing effect)
Assay type: in vivo
Method: When a sample has the function of inducing sleep, the amount of activity always decreases after administration of the sample. Therefore, the sleep inducing effect of each sample was evaluated by determining whether or not the administration of the sample solution to a mouse caused a reduction in the amount of activity.
8-Week old or 9-week old male C57BL/6 mice were purchased from Japan SLC, Inc. and acclimatized for 3 to 6 days. The amount of activity during acclimatization was used to divide the mice into administration groups. Immediately before the onset of the dark period, Fraxinus excelsior L. extract was orally administered in an amount of 3 g/kg per body weight of a mouse (Example 1-1), or a 0.5% by mass aqueous methyl cellulose solution was orally administered in an amount of 10 mL/kg per body weight of a mouse (Comparative Example 1-1), and the amount of activity was measured for 24 hours after administration. Each administration group included 8 mice (n=8).
The amount of activity was measured under the following conditions. The mice were raised in individual cages, and an infrared camera was disposed above each cage. The imaging range of the infrared camera was divided into 64 sections, and the number of occurrences that the mouse crossed a section was measured. The number of occurrences was collected every 30 minutes. […]

**Q.** With `O=C1c2c(O)cc(O)cc2O[C@H](c2ccc(O)c(O)c2)[C@H]1O` [DIHYDROQUERCETIN, dihydroquercetin] as the compound, how does the “cumulative amount of activity 6 hours after administration” value (dihydroquercetin 2.7 g/kg oral immediately before dark period, n=4) read?
**A.** Its value is 4700 number of occurrences/6 hours.

**Q.** And the “cumulative amount of activity 6 hours after administration compared to control solution” value (dihydroquercetin 2.7 g/kg oral, n=4, significant difference at p<0.01)?
**A.** The value was “significantly lower”.

From patent US20140248383A1, “SLEEP QUALITY IMPROVING AGENT” (LION CORPORATION, priority 2011, published 2014)
